Target: T1, BlsL (Streptomyces griseochromogenes, UniProt Q841K2)
T1 construct: gene J2Z21_009042; full length, His-tagged, pET28a NdeI/EcoRI, E. coli BL21(DE3); gene from cluster plasmid pJTU1780; primers encode N-terminus MEQSTGA, C-terminus CFYKD
Assay: SAM released from boiled purified BlsL; HPLC and MS/MS
Assay type: binding
Settings: co-purified endogenous ligand; methyl donor

T1 sequence (Q841K2 1-213): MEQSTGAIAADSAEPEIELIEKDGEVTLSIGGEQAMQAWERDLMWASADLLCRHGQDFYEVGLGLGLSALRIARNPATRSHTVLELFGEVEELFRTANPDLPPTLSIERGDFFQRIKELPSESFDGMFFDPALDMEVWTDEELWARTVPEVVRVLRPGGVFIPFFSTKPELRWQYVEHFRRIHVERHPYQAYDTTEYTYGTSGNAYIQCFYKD

C[S+](CC[C@H](N)C(=O)O)C[C@H]1O[C@@H](n2cnc3c(N)ncnc32)[C@H](O)[C@@H]1O (stereo partly shown) [SAM]
SAM released from boiled purified BlsL; HPLC and MS/MS: Association of SAM with BlsL was confirmed by HPLC as well as MS/MS fragmentation

Reference: article PMC5572114, “Guanidine N-methylation by BlsL Is Dependent on Acylation of Beta-amine Arginine in the Biosynthesis of Blasticidin S” (Frontiers in Microbiology, 2017)
